Consider 17 molecules from US20060063755A1, “Loxapine analogs and methods of use thereof” (priority 2004, published 2006).

Series [1] has as its target T1, H1 histamine receptor (Bos taurus, UniProt P30546).
T1 construct: the receptors were obtained from bovine cerebellar membrane tissue; from tissue; host or cells: bovine cerebellar membranes
The series is described as follows: H1 competitive binding assay, [3H]pyrilamine, bovine cerebellar membranes. Conditions: bovine cerebellar membrane.

Series [2] deals with T2, M3 muscarinic receptor (Homo sapiens, UniProt P20309).
T2 construct: purchased PerkinElmer, Inc., Wellesley, Mass; host or cells: CHO cells
T2 sequence (P20309 whole entry): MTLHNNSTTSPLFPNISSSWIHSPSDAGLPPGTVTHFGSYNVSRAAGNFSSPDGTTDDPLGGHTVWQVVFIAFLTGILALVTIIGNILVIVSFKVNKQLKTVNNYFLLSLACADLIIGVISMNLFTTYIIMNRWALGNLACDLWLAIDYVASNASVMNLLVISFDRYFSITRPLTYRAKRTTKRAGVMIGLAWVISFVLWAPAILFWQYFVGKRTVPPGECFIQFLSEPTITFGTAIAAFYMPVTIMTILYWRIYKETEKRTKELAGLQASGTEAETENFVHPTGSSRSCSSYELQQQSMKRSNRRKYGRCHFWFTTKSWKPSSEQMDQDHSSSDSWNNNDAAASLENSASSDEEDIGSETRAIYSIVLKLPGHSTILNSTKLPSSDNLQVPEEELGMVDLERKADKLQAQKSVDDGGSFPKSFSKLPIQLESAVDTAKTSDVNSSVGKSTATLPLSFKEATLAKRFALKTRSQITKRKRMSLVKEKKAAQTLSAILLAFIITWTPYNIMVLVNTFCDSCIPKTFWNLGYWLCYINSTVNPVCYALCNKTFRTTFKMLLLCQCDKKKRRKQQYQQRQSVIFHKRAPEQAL
The series is described as follows: M3 binding assay, [3H]-scopolamine N-methyl chloride, CHO cells. To be noted: human recombinant.

Series [3] has as its target Dopamine, D1 (Homo sapiens, UniProt P21728). Description: Dopamine D1 (human recombinant) binding assay. On the procedure:
(§1) Binding assays were performed using the disclosed sleep-inducing agents and derivatives selected from those listed in Table 1 in competitive binding assays with known standards for the H1 histamine receptor, and the M1, M2, and M3 muscarinic receptors, alpha 1 and alpha 2 receptors, and D1 and D2 receptors.
Dopamine, D1 (human recombinant) binding assay was performed according to published procedures. See, e.g., Jarvie, et al. J. Recept Res., 13(1-4): 573-90 (1993); and Billard, et al. Life Sciences, 35(18): 1885-93 (1984), with modifications

The target of series [4] is T3, M1 muscarinic receptor (Homo sapiens, UniProt P11229).
T3 construct: purchased PerkinElmer, Inc., Wellesley, Mass; host or cells: CHO cells
T3 sequence (P11229 1-460): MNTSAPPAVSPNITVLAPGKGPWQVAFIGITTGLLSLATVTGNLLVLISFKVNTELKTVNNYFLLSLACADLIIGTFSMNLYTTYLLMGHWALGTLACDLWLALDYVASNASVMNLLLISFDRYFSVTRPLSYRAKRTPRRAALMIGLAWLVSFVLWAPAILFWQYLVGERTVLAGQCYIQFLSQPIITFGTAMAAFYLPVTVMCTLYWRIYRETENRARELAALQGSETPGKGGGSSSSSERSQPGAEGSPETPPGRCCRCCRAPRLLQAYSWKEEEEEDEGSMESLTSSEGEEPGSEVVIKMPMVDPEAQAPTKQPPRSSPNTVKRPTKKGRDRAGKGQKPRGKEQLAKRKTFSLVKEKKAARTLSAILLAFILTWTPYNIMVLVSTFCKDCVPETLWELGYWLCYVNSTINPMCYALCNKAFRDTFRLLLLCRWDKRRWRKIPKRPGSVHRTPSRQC
The series is described as follows: M1 binding assay, [3H]-scopolamine N-methyl chloride, CHO cells. Conditions: human recombinant.

The target in series [5] is alpha 2 receptors. The series is described as follows: Alpha 2 receptor binding assay. Conditions: read-out: Ki Alpha2. Here is the method:
as §1

Series [6] has as its target alpha 1 receptors. Description: Alpha 1 receptor binding assay. To be noted: read-out: Ki Alpha1. On the procedure: as §1
Series [7] addresses T4, M2 muscarinic receptor (Homo sapiens, UniProt P08172).
T4 construct: purchased PerkinElmer, Inc., Wellesley, Mass; host or cells: CHO cells
T4 sequence (P08172 1-466): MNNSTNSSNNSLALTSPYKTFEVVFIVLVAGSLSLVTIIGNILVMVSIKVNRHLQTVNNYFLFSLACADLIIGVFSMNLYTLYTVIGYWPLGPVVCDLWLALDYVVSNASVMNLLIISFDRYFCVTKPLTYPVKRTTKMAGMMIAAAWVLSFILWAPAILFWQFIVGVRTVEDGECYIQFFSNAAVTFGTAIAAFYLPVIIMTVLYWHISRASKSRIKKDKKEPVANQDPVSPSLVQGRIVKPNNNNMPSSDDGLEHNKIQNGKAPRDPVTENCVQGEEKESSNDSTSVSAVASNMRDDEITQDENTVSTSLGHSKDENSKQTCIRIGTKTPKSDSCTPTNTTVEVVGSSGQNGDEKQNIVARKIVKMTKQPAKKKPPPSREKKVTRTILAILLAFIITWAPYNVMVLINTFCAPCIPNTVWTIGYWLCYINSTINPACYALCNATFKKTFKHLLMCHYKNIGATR
The series is described as follows: M2 binding assay, [3H]-scopolamine N-methyl chloride, CHO cells. Conditions: human recombinant.

The target in series [8] is D2 receptors (Homo sapiens, UniProt P14416). The series is described as follows: Dopamine D2 binding assay (human). Here is the method:
Binding assays were performed using the disclosed sleep-inducing agents and derivatives selected from those listed in Table 1 in competitive binding assays with known standards for the H1 histamine receptor, and the M1, M2, and M3 muscarinic receptors, alpha 1 and alpha 2 receptors, and D1 and D2 receptors. […]

For series [9], the target named is hERG channel (Homo sapiens, UniProt Q12809). Description: hERG channel current block, whole cell recording in HEK293 cells. It is filed as cell-based. To be noted: HEK293 cells expressing hERG. On the procedure:
Other in vitro selection criteria for loxapine analogs of the invention includes hERG binding.
(Brown and Rampe (2000)).
In one embodiment of the HERG assay, the positive control (i.e., reference compound) is terfenadine (Sigma, St. Louis Mo.), which has been shown, at a concentration of 60 nM, to block HERG current by approximately 75%. Test compounds are delivered in HEPES-buffered physiological saline (HB-PS)+0.1% dimethyl sulfoxide (DMSO).
Clin. Exp. Allergy 29 Suppl 3, 174-181.
If the final DMSO concentration must be greater than 0.3%, to reach a specified test article concentration, a separate vehicle control test with an n>2 was performed at the highest final DMSO concentration.
Each cell acted as its own control. […] One concentration of the positive control article (60 nM terfenadine) was applied to two cells (n≧2).
In general terms: hERG is a cardiac potassium channel; its block is linked to QT prolongation.

The structures appear in SMILES notation. Where “and” joins values, the source holds several entries; their conditions need not be identical. Equal entries are not always repeated.

T1 sequence (P30546 whole entry): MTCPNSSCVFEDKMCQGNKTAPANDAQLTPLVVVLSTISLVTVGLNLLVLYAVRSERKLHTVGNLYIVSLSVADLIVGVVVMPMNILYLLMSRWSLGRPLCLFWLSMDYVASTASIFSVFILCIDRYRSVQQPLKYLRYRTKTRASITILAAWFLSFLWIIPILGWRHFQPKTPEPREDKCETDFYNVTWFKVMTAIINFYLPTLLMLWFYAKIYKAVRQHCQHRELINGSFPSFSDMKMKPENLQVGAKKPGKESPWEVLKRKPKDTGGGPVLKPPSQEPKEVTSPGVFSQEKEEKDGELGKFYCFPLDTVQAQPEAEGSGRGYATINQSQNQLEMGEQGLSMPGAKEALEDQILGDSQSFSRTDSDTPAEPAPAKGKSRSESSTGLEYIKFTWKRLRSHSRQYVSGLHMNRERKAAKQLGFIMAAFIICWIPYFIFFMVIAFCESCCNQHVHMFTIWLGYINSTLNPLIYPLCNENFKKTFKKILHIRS
Sequence of Dopamine, D1 (P21728 whole entry): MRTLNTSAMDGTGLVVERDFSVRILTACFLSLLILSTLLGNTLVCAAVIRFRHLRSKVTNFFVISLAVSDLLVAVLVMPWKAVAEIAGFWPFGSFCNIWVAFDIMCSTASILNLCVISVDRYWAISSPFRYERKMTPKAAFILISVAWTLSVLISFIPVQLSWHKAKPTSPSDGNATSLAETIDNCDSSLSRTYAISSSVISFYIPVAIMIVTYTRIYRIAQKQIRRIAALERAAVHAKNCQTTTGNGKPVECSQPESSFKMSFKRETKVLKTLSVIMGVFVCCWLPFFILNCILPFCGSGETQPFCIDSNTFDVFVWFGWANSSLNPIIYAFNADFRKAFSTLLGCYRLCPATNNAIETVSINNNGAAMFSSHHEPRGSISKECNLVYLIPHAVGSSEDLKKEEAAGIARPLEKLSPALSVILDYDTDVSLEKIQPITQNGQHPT
Sequence of hERG channel (Q12809 whole entry): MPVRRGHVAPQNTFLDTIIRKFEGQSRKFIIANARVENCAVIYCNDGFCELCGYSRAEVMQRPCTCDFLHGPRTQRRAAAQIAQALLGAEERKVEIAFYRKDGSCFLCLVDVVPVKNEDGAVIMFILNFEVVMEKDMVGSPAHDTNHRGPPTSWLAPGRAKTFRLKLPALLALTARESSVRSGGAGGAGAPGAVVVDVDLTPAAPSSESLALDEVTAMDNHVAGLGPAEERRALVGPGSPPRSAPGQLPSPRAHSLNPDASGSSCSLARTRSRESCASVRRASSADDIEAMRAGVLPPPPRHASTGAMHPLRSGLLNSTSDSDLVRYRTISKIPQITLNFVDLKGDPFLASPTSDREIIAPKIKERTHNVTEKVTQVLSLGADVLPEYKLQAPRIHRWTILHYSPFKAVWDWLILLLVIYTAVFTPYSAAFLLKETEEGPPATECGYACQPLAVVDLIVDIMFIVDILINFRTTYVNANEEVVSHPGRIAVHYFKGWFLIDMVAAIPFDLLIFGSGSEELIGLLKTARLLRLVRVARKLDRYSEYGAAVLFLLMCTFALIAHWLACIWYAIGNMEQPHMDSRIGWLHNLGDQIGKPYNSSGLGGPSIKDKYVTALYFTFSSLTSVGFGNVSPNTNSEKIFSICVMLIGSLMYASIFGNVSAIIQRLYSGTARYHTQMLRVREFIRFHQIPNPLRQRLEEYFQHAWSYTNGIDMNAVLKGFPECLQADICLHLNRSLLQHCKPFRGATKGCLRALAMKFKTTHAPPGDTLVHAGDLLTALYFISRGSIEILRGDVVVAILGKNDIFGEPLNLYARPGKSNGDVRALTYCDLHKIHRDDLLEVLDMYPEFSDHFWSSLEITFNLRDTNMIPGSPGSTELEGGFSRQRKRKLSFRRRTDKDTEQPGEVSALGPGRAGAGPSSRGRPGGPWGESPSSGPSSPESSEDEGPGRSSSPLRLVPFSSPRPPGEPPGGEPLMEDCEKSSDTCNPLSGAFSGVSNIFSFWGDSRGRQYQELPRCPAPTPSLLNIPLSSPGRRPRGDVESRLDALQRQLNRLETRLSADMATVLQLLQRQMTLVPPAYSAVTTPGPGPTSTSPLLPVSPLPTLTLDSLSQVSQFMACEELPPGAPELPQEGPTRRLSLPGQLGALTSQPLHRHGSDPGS
Sequence of D2 receptors (P14416 whole entry): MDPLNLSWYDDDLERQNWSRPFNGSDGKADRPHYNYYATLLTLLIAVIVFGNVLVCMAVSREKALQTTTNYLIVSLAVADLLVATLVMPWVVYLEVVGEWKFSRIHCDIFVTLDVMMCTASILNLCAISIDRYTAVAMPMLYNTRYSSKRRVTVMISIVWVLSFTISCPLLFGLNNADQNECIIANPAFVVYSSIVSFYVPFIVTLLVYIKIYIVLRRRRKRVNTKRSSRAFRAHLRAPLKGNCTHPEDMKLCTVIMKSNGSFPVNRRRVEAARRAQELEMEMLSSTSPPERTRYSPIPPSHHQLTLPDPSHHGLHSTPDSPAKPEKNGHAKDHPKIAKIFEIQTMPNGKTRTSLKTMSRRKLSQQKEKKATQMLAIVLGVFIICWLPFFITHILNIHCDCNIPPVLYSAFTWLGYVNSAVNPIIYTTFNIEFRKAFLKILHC

Consider `CC(C)(CCN1CCN(C2=Nc3ccccc3Oc3ccccc32)CC1)C(=O)O` [Compound 3], for which the Ki in series [1] was 7.33 nM; in [2], over 10 µM; in [3] it was 4.92 µM; in [4], over 10 µM; in [5], over 10 µM; in series [6] it was over 10 µM. For the same molecule, the inhibition constant Ki in series [7] was over 10 µM; in series [8] it was 1190 nM. Also, in series [9], the “hERG at 10 micromolar (% blocking of the hERG channel)” value is recorded as 3.8%.

With `COc1ccc2c(c1)Oc1ccc(Br)cc1N=C2N1CCN(CC(C)(C)C(=O)O)CC1` [Compound 86], the “hERG at 10 micromolar (% blocking of the hERG channel)” value in series [9] came out at 86.90%.

Regarding `CC(C)(CN1CCN(C2=Nc3ccccc3Oc3ccc(Cl)cc32)CC1)C(=O)O` [Compound 5], the inhibition constant (Ki) in series [1] was 23.9 nM; in series [2] it was over 10 µM; in series [3], 4.52 µM; in [4] it was over 10 µM; in [5] it was over 10 µM; in series [6], 3.02 µM. Besides, the Ki in [7] is over 10 µM; in series [8], 1610 nM. The “hERG at 10 micromolar (% blocking of the hERG channel)” value in series [9] is recorded as 36%.

Regarding `COc1ccc2c(c1)C(N1CCN(CC(C)(C)C(=O)O)CC1)=Nc1ccccc1O2` [Compound 12], the Ki in series [1] was 137 nM; in [2], over 10 µM; in [3], 5.22 µM; in [4] it was over 10 µM; in series [5] it was over 10 µM; in series [6], over 10 µM. The Ki in [7] was over 10 µM; in [8], 1240 nM. Also, the “hERG at 10 micromolar (% blocking of the hERG channel)” value in series [9] is 7.20%.

Consider `Cc1ccc2c(c1)N=C(N1CCN(CC(C)(C)C(=O)O)CC1)c1ccc(C)cc1O2` [Compound 52], for which the Ki in [1] was 55.4 nM; in series [2], over 10 µM; in series [4] it was over 10 µM; in series [5] it was over 10 µM; in series [6], over 10 µM; in series [7], over 10 µM. Also, in [8], the Ki was over 10000 nM. Further, the “hERG at 10 micromolar (% blocking of the hERG channel)” value in [9] is on record as 19.80%.

Turning to `COc1ccc2c(c1)Oc1ccc(OC)cc1C(N1CCN(CC(C)(C)C(=O)O)CC1)=N2` [Compound 35], the Ki in series [2] is over 10 µM; in [3], over 10 µM; in series [4], over 10 µM; in series [5], over 10 µM; in series [6] it was over 10 µM; in series [8], over 10000 nM. For the same molecule, the “hERG at 10 micromolar (% blocking of the hERG channel)” value in series [9] was 0.10%.

As for `CC(C)(CN1CCN(C2=Nc3cc(Br)ccc3Oc3ccccc32)CC1)C(=O)O` [Compound 17], the Ki in series [1] is 12 nM; in series [2], over 10 µM; in [3], 3.45 µM; in series [4] it was over 10 µM; in [6], 1.99 µM; in series [7], over 10 µM. The same molecule came in with an inhibition constant (Ki) in series [8] of 883 nM. In addition, in [9], the “hERG at 10 micromolar (% blocking of the hERG channel)” value is 30.10%.

For `COc1ccc2c(c1)C(N1CCN(CC(C)(C)C(=O)O)CC1)=Nc1ccc(Br)cc1O2` [Compound 72], the Ki in series [2] is over 10 µM; in [3], 0.514 µM; in series [4], over 10 µM; in series [6], over 10 µM; in series [8] it was 470 nM. The “hERG at 10 micromolar (% blocking of the hERG channel)” value in series [9] was 10.90%.

Consider `Cc1ccc2c(c1)Oc1ccccc1N=C2N1CCN(CC(C)(C)C(=O)O)CC1` [Compound 46], for which the inhibitory constant (Ki) in series [1] was 18.8 nM; in series [2], over 10 µM; in [3] it was over 10 µM; in [4] it was over 10 µM; in [5] it was over 10 µM; in series [6], over 10 µM. Moreover, the Ki in series [8] is over 10000 nM. In addition, in series [9], the “hERG at 10 micromolar (% blocking of the hERG channel)” value is reported as 20.40%.

Turning to `COc1ccc2c(c1)C(N1CCN(CC(C)(C)C(=O)O)CC1)=Nc1ccc(C)cc1O2` [Compound 58], the Ki is over 10 µM in [2]; 2 µM in [3]; over 10 µM in series [4]; over 10 µM in series [5]; over 10 µM in series [6]; over 10 µM in [7]. This molecule displayed a Ki in series [8] of 4030 nM. Also, in [9], the “hERG at 10 micromolar (% blocking of the hERG channel)” value was determined as 0.20%.

For the molecule `Cc1ccc2c(c1)Oc1ccc(Br)cc1N=C2N1CCN(CC(C)(C)C(=O)O)CC1` [Compound 44], the Ki in series [1] was 41.4 nM; in series [2], over 10 µM; in series [4], over 10 µM; in series [5] it was over 10 µM; in [6], over 10 µM. In series [9], the “hERG at 10 micromolar (% blocking of the hERG channel)” value came out at 65.90%.

Turning to `CC(C)(CCN1CCN(C2=Nc3ccccc3Oc3ccc(Cl)cc32)CC1)C(=O)O` [Compound 6], the Ki is 13.8 nM in [1]; 7.17 µM in [3]; over 10 µM in series [5]; 2.73 µM in series [6]; 96.1 nM in [8]. Moreover, the “hERG at 10 micromolar (% blocking of the hERG channel)” value in series [9] turned out to be 27%.

`COc1ccc2c(c1)C(N1CCN(CC(C)(C)C(=O)O)CC1)=Nc1cc(F)ccc1O2` [Compound 48]: the inhibition constant Ki in series [1] is 27.1 nM; in series [2], over 10 µM; in [4], over 10 µM; in series [6], over 10 µM.

`Cc1ccc2c(c1)Oc1ccc(C)cc1C(N1CCN(CC(C)(C)C(=O)O)CC1)=N2` [Compound 31]: the inhibition constant Ki in [1] is 239 nM and 337 nM and 244 nM; in series [2] it was over 10 µM; in [3] it was 0.873 µM; in series [4], over 10 µM; in series [5], over 10 µM; in [6], over 10 µM. The molecule further yielded a Ki in series [8] of 2200 nM. For the same molecule, the “hERG at 10 micromolar (% blocking of the hERG channel)” value in [9] was 3.80%.

As to `COc1ccc2c(c1)C(N1CCN(CC(C)(C)C(=O)O)CC1)=Nc1cc(C)ccc1O2` [Compound 54], the Ki was 40.4 nM in series [1]; 4.97 µM in series [3]; over 10 µM in [4]; 5.82 µM in series [5]; 1.21 µM in series [6]; over 10 µM in [7]. Also, the inhibitory constant (Ki) in [8] was found to be 1080 nM. Also, the “hERG at 10 micromolar (% blocking of the hERG channel)” value in series [9] came to 6.10%.

`COc1ccc2c(c1)N=C(N1CCN(CC(C)(C)C(=O)O)CC1)c1cc(C)ccc1O2` [Compound 56]: the Ki in series [1] was 117 nM; in series [2], over 10 µM; in series [3], over 10 µM; in series [4], over 10 µM; in [5] it was over 10 µM; in [6] it was over 10 µM. Further, in [8], the Ki was over 10000 nM. In addition, the “hERG at 10 micromolar (% blocking of the hERG channel)” value in series [9] worked out at 0.30%.

As to `COc1ccc2c(c1)N=C(N1CCN(CC(C)(C)C(=O)O)CC1)c1ccc(OC)cc1O2` [Compound 42], the Ki in series [1] is 1120 nM; in series [2] it was over 10 µM; in series [3] it was over 10 µM; in series [4], over 10 µM; in series [5], over 10 µM; in [6], over 10 µM. For the same molecule, in series [8], the inhibitory constant (Ki) is over 10000 nM. In [9], the “hERG at 10 micromolar (% blocking of the hERG channel)” value came to 5.80%.

By Ki is commonly meant the equilibrium dissociation constant of an inhibitor or competing ligand from its target.
